# Experimental data from patent US11801252B2, “Pharmaceutical composition” (Jiangsu Hengrui Medicine Co., Ltd., priority 2021, dated 2023).
# “And” between values parts separate entries of the source, which are not always exact repeats. Identical values can stand only once. Like-named read-outs stand apart in the source and are kept apart here.
# How the values were obtained:
# [1] = stated without source; cited from earlier work
# [2] = In vivo pharmacokinetics study in healthy subjects, 75-450 mg single dose, fasting (Test Example 2); design: species or system human (healthy male subjects); conditions: single oral, healthy male subjects
# [3] = Pharmacokinetics study in male cynomolgus monkeys (Test Example 1); format: in vivo; conditions: cynomolgus monkey, plasma, po, 300 mg/animal, after Formulation 2 (2 tablets, 300 mg/animal) PO, mean ± SD; for AUC(0-inf): n = 8, read-out: AUC(0-∞) of SNAC in plasma; for Cmax: n = 8, read-out: Cmax of SNAC in plasma; for half-life: n = 8, read-out: T1/2 of SNAC in plasma (converted); for Tmax: n = 8, read-out: Tmax of SNAC in plasma; for AUC(0-t): t = 24 h, n = 8, read-out: AUC(0-t) of SNAC in plasma
# Method: Eight male cynomolgus monkeys were administered by single oral gavage, including 4 cycles, 5 days per cycle, 20 days in total (see Table 4 for the protocol).
# The animals in cycle I and II were fasted before administration, while the animals in cycle III and IV were given high-fat food before administration. Animals in cycle I and III were given 300 mg of Formulation 2 (2 tablets of abiraterone acetate, T, comprising 300 mg of abiraterone), while animals in cycle II and IV were given 1000 mg of reference preparation (4 tablets of abiraterone acetate Zytiga®, R). Blood samples were collected before administration or at 0.25, 0.5, 1, 1.5, 2, 2.5, 3, 4, 8, 12 and 24 hours after administration. The validated LC-MS/MS method was used to determine the concentrations of abiraterone and SNAC in plasma samples. Only abiraterone was detected for those given reference preparation, while abiraterone and SNAC were both detected for those given test formulations. The main pharmacokinetic parameters were calculated according to the concentrations of abiraterone and SNAC in plasma using Phoenix WinNonlin® 7.0 software. The main pharmacokinetic data of abiraterone in plasma in cycles I-IV are shown in Table 5, and the main pharmacokinetic data of SNAC in plasma in cycles I and III are shown in Table 6.
# [4] = In vivo pharmacokinetics study in healthy subjects, 75-450 mg single dose, fasting (Test Example 2); design: species or system human (healthy male subjects); conditions: for CLz/F of SNAC / t1/2z of SNAC / λz of SNAC / AUC—% Extrap of SNAC / MRT last / MRT inf / AUC(0-inf) / Cmax / AUC(0-t) / Vd/F / Tmax: single oral, fasting, healthy male subjects; for CLz/F of SNAC / t1/2z of SNAC / λz of SNAC / AUC—% Extrap of SNAC / MRT last / MRT inf / AUC(0-inf) / Cmax / AUC(0-t) / Vd/F: Mean ± SD; for MRT last / MRT inf / AUC(0-inf) / Cmax / AUC(0-t) / Vd/F / Tmax: human; for MRT last: read-out: MRT0-t of SNAC; for MRT inf: read-out: MRT0-∞ of SNAC; for AUC(0-inf): read-out: AUC0-∞ of SNAC; for AUC(0-t): read-out: AUC0-t of SNAC; for Vd/F: read-out: Vz/F of SNAC; for Tmax: median
# Method: To study the pharmacokinetic characteristics of 75 mg, 150 mg, 300 mg and 450 mg doses of abiraterone acetate tablets in healthy subjects after a single oral administration under fasting state.
# A single-center, open-label, sequential trial design was applied. A total of 16 healthy male subjects were planned to be enrolled in the study, who entered the four dose groups sequentially and the washout period of each dose group was seven days. Blood samples were collected at a series of time points, and safety test was performed. The blood concentration of abiraterone at different time points after dosing was determined by HPLC-MS/MS. Pharmacokinetic parameters were calculated using non-compartmental model and statistically analyzed.
# The subjects were admitted to the ward before dinner on the day before the administration of each studied dose. […] They were fasting for at least 10 hours before dosing. According to the trial protocol, subjects were given a single oral administration of the investigational drug, abiraterone acetate tablets, 75 mg (split 150 mg tablet along the score line into half a tablet), 150 mg (150 mg×1 tablet), 300 mg (150 mg×2 tablets) and 450 mg (150 mg×3 tablets) with 240 mL water under fasting state in the morning on the day of trial of each dose group. Liquid was prohibited before administration and within 1 h after administration, and standard lunch and dinner (a standardized light diet) were taken about 4 and 10 h after administration.
# Test Formulation (T): Abiraterone acetate tablets (Formulation 5), specification: 150 mg.
# PKPS (PKPS, all enrolled in the group and receiving the study drug, at least one subject with analyzable PK parameters during the trial) was used for the statistical analysis of pharmacokinetic parameters.
# The linearity between AUC and Cmax and the administration dose was analyzed by confidence interval method, and linear regression analysis was performed on the AUC and Cmax after natural logarithmic transformation respectively and the administration dose, to observe the slope of the linear regression equation and 90% confidence interval.
# [5] = after Formulation 5, dose group A 75 mg (equal SNAC content), N = 16
# [6] = after Formulation 5, dose group B 150 mg (equal SNAC content), N = 15
# [7] = after Formulation 5, dose group C 300 mg (equal SNAC content), N = 15
# [8] = after Formulation 5, dose group D 450 mg (equal SNAC content), N = 15
# [9] = dose range 75-450 mg of test formulation, confidence interval method, N = 16
# [10] = blood, after Formulation 5, dose group A 75 mg (equal SNAC content), N = 16
# [11] = blood, after Formulation 5, dose group B 150 mg (equal SNAC content), N = 15
# [12] = blood, after Formulation 5, dose group C 300 mg (equal SNAC content), N = 15
# [13] = blood, after Formulation 5, dose group D 450 mg (equal SNAC content), N = 15
# [14] = plasma, after Formulation 5, dose group A 75 mg (equal SNAC content), N = 16
# [15] = plasma, after Formulation 5, dose group B 150 mg (equal SNAC content), N = 15
# [16] = plasma, after Formulation 5, dose group C 300 mg (equal SNAC content), N = 15
# [17] = plasma, after Formulation 5, dose group D 450 mg (equal SNAC content), N = 15
smiles,measurement,setting,value
"O=C([O-])CCCCCCCNC(=O)c1ccccc1O.[Na+] [SNAC, sodium 8-(salicylamido)caprylate]",PKA,[1],5.0
same,AUC—% Extrap of SNAC,"[2]; after Formulation 5, dose group A 75 mg (equal SNAC content), N = 16, Mean ± SD",1.23 ± 1.12%
same,Tmax,"[2]; human, plasma, after Formulation 5, dose group A 75 mg (equal SNAC content), N = 16, median",0.38 h
same,AUC(0-t),"[2]; human, plasma, after Formulation 5, dose group C 300 mg (equal SNAC content), N = 15, Mean ± SD, read-out: AUC0-t of SNAC",1.4 µg·h/mL
same,AUC(0-inf),[3]; fasting,40.9 ± 10.6 µg·h/mL
same,Cmax,[3]; fasting,34.2 ± 18 µg/mL
same,half-life,[3]; fasting,3.16 ± 0.93 h
same,Tmax,[3]; fasting,0.72 ± 0.49 h
same,AUC(0-inf),[3]; high fat diet,18.7 ± 5.62 µg·h/mL
same,Cmax,[3]; high fat diet,4.66 ± 2.4 µg/mL
same,half-life,[3]; high fat diet,2.71 ± 0.74 h
same,Tmax,[3]; high fat diet,2.88 ± 0.74 h
same,AUC(0-t),[3]; fasting,40.3 ± 10.4 µg·h/mL
same,AUC(0-t),[3]; high fat diet,18.4 ± 5.74 µg·h/mL
same,CLz/F of SNAC,[4]; [5],2.66 ×10^2 L · h^−1 and 2.66 ± 0.64 ×10^2 L · h^−1
same,t1/2z of SNAC,[4]; [5],3.53 h and 3.53 ± 2.54 h
same,λz of SNAC,[4]; [5],0.28 ± 0.14 h⁻¹
same,AUC—% Extrap of SNAC,[4]; [6],0.63 ± 0.62%
same,CLz/F of SNAC,[4]; [6],2.36 ×10^2 L · h^−1 and 2.36 ± 0.62 ×10^2 L · h^−1
same,t1/2z of SNAC,[4]; [6],2.94 h and 2.94 ± 1.39 h
same,λz of SNAC,[4]; [6],0.29 ± 0.14 h⁻¹
same,AUC—% Extrap of SNAC,[4]; [7],0.95 ± 0.91%
same,CLz/F of SNAC,[4]; [7],2.22 ×10^2 L · h^−1 and 2.22 ± 0.51 ×10^2 L · h^−1
same,t1/2z of SNAC,[4]; [7],5.35 h and 5.35 ± 3.92 h
same,λz of SNAC,[4]; [7],0.19 ± 0.11 h⁻¹
same,AUC—% Extrap of SNAC,[4]; [8],0.50 ± 0.44%
same,CLz/F of SNAC,[4]; [8],2.22 ×10^2 L · h^−1 and 2.22 ± 0.51 ×10^2 L · h^−1
same,t1/2z of SNAC,[4]; [8],4.88 h and 4.88 ± 2.37 h
same,λz of SNAC,[4]; [8],0.18 ± 0.09 h⁻¹
same,"Slope of the linear regression equation (β), LnAUC0-t of SNAC vs dose",[4]; [9],1.10
same,"Slope of the linear regression equation (β), LnAUC0-∞ of SNAC vs dose",[4]; [9],1.10
same,"Slope of the linear regression equation (β), LnCmax of SNAC vs dose",[4]; [9],1.00
same,MRT last,[4]; [10],1.32 ± 0.52 h
same,MRT inf,[4]; [10],1.58 ± 0.76 h
same,MRT last,[4]; [11],1.21 ± 0.48 h
same,MRT inf,[4]; [11],1.32 ± 0.5 h
same,MRT last,[4]; [12],1.28 ± 0.36 h
same,MRT inf,[4]; [12],1.55 ± 0.54 h
same,AUC(0-inf),[4]; [13],2.13 ± 0.491 µg·h/mL
same,MRT last,[4]; [13],1.4 ± 0.53 h
same,MRT inf,[4]; [13],1.53 ± 0.51 h
same,Cmax,[4]; [14],0.407 µg/mL
same,AUC(0-t),[4]; [14],0.291 µg·h/mL
same,AUC(0-inf),[4]; [14],0.295 ± 0.0614 µg·h/mL
same,Vd/F,[4]; [14],1280 L
same,Cmax,[4]; [15],0.977 µg/mL
same,AUC(0-t),[4]; [15],0.668 µg·h/mL
same,AUC(0-inf),[4]; [15],0.672 ± 0.152 µg·h/mL
same,Vd/F,[4]; [15],1010 L
same,Tmax,[4]; [15],0.5 h
same,Cmax,[4]; [16],1.87 µg/mL
same,AUC(0-inf),[4]; [16],1.41 ± 0.285 µg·h/mL
same,Vd/F,[4]; [16],1740 L
same,Tmax,[4]; [16],0.5 h
same,Cmax,[4]; [17],2.46 µg/mL
same,AUC(0-t),[4]; [17],2.12 µg·h/mL
same,Vd/F,[4]; [17],1520 L
same,Tmax,[4]; [17],0.5 h
